Data set [1] can be described thus: Deaths and body weight during treatment. The class given is in vivo, mice. On the procedure: using individual calibration curves established with the corresponding tissue homogenates from untreated mice. The calibration curve was regressed with a weight of 1/x2 with high linearity (r2 […]
Spatial distribution of CDD-2807 in testis. The testis from the mice treated with CDD-2807 were attached to the Leica CM3050 S cryostat (Leica Biosystems, Deer Park, IL) with water and then sectioned at the thickness of 10 μm at −20°C. The sections were attached to electrically conductive glass slides coated with indium tin oxide ([…], 70-100 ohms, Delta Technologies, Loveland, CO). Tissue sections were sprayed with a matrix solution containing 35 mg/mL 2,5-dihydroxybenzoic acid (DHB, Sigma, St. Louis, MO) in 70% aqueous CH3OH with 0.1% trifluoroacetic acid using an HTX TM-Sprayer (HTX Technologies LLC, Carrboro, NC). Sprayer nozzle temperature was set at 70°C, tray temperature at 40°C, nozzle velocity at 1200 mm/min, track spacing at 2 mm, drying time for 10 sec and nitrogen gas pressure at 10 psi. The data were collected on the Bruker TimsTOF MS MALDI-2 instrument with the resolution at 40 µm/pixel (mass range 100−1000 Da under the positive mode) using DHB ion as the on-line calibrant. The data was analyzed, and the images were plotted by SciLs Lab software (Bruker, Billerica, MA). […]
Alanine transaminase (ALT) and aspartate transaminase (AST) assays. […] ALT and AST levels were measured in duplicates using assay kits (StanBio, Boerne, TX) according to the manufacturer's instructions. ALT and AST levels were determined using the rate of NADH oxidation, which was quantified by measuring absorbance at 340 nm using a CLARIOstar plate reader (BMG Labtech in Cary, NC). ALT and AST were tested for significance at multiple collection time points, tests for significance included a test for normality (Shapiro-Wilk test) and following the test for normality were then analyzed using an unpaired t-test with significance determined by an alpha of P = 0.05. […]
Fertility analysis. […] Weights were measured daily prior to drug administration and monitored throughout the entirety of the injection period. […]

The target of another data set is STK33 (Homo sapiens, UniProt Q9BYT3). Description: LanthaScreen binding assay (ThermoFisher SelectScreen). Further details: purchased SelectScreen Services (ThermoFisher). From the text: In vitro biochemical assays. Several small molecule assays were outsourced to SelectScreen Services (ThermoFisher) for STK33 and for off-target kinases (data sets are available on demand).
These assays are LanthaScreen (binding assay) and Z’-LYTE (activity assay). Dose-responses were done with at least 5 different concentrations in duplicates, and parameters were optimized by calculations described below and provided with standard errors.
Calculation of Kd values for kinase inhibitors that bind to the ATP pocket of a kinase from LanthaScreen binding data. DynaFit (71) was used to fit complex equilibria where a tracer is displaced by a dilution series of a kinase inhibitor. This method relies on the concentration of inhibitor, as well as the concentration of kinase and tracer, and Kd of the tracer. The latter three parameters are tabulated by ThermoFisher for each kinase in the LanthaScreen assay panel. […]
Since Kd and Ki values are defined the same way, in other words, Kd = [E] [I] / [EI] = Ki, Kd and Ki values can be compared. […]

The values that follow come from article PMC11842024, “Reversible male contraception by targeted inhibition of serine/threonine kinase 33” (Science (New York, N.Y.), 2024).

As a reminder, the Kd is the concentration at which binding is half-saturated. Low values mean tighter binding, high ones weaker binding.

STK33, sequence (Q9BYT3 whole entry): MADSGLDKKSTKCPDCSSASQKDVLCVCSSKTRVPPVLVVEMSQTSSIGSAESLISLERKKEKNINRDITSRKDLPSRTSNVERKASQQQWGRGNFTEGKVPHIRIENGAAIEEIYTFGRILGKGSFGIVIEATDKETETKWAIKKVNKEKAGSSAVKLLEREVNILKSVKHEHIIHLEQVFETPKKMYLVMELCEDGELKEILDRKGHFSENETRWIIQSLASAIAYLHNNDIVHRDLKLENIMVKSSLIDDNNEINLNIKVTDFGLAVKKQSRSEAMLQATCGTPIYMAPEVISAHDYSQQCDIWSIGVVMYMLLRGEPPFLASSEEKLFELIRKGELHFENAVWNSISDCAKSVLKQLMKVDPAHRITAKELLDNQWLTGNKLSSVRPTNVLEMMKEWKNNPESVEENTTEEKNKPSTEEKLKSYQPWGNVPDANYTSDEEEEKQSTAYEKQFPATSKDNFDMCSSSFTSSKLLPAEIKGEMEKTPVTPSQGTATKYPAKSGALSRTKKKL

The compound `O=C(c1ccc2[nH]nc(C#Cc3ccccc3-c3ccccc3)c2c1)N1CC2(CCCNC2)C1` [CDD-2807] had a mouse body weights in data set [1] (50 mg/kg/day for 7 days (Protocol 3)) of 27.05 ± 0.79 g. Further, in data set [1] (protocols 1 and 2), the “deaths during the period of treatment” value was “no deaths” and the “weight changes during the period of treatment” value is “no significant weight changes”. Further, the Kd on STK33 stood at 0.02 nM.
